Reference: article PMC3095698 (Journal of molecular biology, 2011)

What was measured:
Type in all cases: biochemical
c-myc-PIP5K Iα = c-myc-PIP5K Iα (Homo sapiens, UniProt Q99755); test: activation of DP-PI; conditions: activator; 20 μM DP-PI(4)P, 50 μM PA, 50 μM ATP
3×HA-DGKα [1] = target: 3×HA-DGKα (Homo sapiens, UniProt P23743); test: […]-ATP phosphorylation in Triton X-100 mixed micelles, COS-7 lysate; conditions: 0.1 mM ATP, 5 mM MgCl2, pH 7.5, 25 °C; DOPS in micelles; surface mole percent
3×HA-DGKα [2] = target: 3×HA-DGKα (Homo sapiens, UniProt P23743, V656L); test: as above; conditions: 0.1 mM ATP, 5 mM MgCl2, pH 7.5, 25 °C; DOPS in micelles; surface mole percent
3×HA-DGKα (Homo sapiens, UniProt P23743, V656L), sequence (P23743 whole entry V656L): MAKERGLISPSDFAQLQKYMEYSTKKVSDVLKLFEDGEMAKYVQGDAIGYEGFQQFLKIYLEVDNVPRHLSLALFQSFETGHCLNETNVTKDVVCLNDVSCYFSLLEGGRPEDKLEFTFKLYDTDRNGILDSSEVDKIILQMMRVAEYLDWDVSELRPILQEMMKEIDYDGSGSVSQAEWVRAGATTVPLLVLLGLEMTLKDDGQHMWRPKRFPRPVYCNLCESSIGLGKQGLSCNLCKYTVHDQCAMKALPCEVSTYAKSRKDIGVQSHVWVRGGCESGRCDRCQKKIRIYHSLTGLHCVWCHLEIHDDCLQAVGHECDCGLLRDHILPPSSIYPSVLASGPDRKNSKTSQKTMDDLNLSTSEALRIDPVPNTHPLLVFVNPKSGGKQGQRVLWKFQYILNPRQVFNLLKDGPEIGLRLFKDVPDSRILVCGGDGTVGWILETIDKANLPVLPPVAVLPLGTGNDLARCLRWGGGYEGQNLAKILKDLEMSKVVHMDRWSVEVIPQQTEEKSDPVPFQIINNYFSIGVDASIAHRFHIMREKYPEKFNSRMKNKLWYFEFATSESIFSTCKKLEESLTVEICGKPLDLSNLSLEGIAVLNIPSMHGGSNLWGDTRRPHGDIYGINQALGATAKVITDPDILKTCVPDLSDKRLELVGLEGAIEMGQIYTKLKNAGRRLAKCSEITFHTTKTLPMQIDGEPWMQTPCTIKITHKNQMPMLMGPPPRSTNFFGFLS

3×HA-DGKα (Homo sapiens, UniProt P23743), sequence (P23743 whole entry): as the sequence (P23743 whole entry V656L) above, with L656V counted along it
c-myc-PIP5K Iα, sequence (Q99755 whole entry): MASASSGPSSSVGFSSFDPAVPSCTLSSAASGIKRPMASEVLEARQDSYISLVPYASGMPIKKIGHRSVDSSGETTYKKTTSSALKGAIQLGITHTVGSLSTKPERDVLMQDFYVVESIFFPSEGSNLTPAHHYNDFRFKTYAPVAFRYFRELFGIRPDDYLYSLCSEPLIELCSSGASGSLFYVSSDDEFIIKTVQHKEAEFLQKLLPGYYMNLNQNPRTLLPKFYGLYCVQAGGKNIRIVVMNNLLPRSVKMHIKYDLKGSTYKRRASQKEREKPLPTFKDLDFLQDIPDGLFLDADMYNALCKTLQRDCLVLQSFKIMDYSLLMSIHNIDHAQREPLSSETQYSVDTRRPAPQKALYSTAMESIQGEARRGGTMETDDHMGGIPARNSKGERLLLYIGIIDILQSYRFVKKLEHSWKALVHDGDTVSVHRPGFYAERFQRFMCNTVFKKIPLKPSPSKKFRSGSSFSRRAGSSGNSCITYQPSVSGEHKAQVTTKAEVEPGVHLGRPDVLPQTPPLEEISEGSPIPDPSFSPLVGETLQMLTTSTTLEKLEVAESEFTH

fold activation (c-myc-PIP5K Iα) [fold]	Km, mol% (3×HA-DGKα [1]) [mol%]	Km, mol% (3×HA-DGKα [2]) [mol%]	SMILES
12			CCCCC/C=C\C/C=C\C/C=C\C/C=C\CCCC(=O)OC[C@H](COP(=O)(O)O)OC(=O)CCC/C=C\C/C=C\C/C=C\C/C=C\CCCCC [DAPA, 1,2-Diarachidonoyl phosphatidic acid]
	2.1 ± 0.4	1.8 ± 0.3	CCCCC/C=C\C/C=C\C/C=C\C/C=C\CCCC(=O)O[C@@H](CO)COC(=O)CCCCCCCCCCCCCCCCC [SAG, 1-Stearoyl-2-arachidonoyl-sn-glycerol]
	2.8 ± 0.3	1.5 ± 0.4	CCCCC/C=C\C/C=C\CCCCCCCC(=O)O[C@@H](CO)COC(=O)CCCCCCCCCCCCCCCCC [SLG, 1-Stearoyl-2-linoleoyl-sn-glycerol]
